# Where two headings read alike, the source gives them in different places.
# How the values were obtained:
# [1] = test system: HIV-1 (RF) in MT-2 cells; experiment: microbe, parasite or virus in culture; assay type: cell-based
# Method in brief: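 Read-out: gag and pol viral RNA captured by 5′-biotinylated oligonucleotides on streptavidin-coated wells, detected with alkaline phosphatase-linked reporter oligonucleotides, calibrated against BH10 in vitro transcripts. Virus stocks (RF, MN, IIIB) come from H9 cultures; MT-2 host cells kept in RPMI 1640, 5% FCS.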
# [2] = target: single-chain tethered dimer of HIV protease (Human immunodeficiency virus 1, UniProt P04585); experiment: biochemical; assay type: biochemical; parameters: fused on or other part: A second copy of the same protease unit is joined to the first by a short peptide tether, giving one polypeptide
# [3] = Human immunodeficiency virus 1, MT2, 48 h, Table 2d, class symbols, read-out: IC90
# [4] = read-out: HPLC K1; Table 2d; class symbols
# [5] = Table 2d; class symbols; read-out: HPLC K1
# [6] = Human immunodeficiency virus 1, MT2, 48 h, Table 2d, HIV RNA assay, read-out: IC90
# [7] = read-out: HPLC K1; Table 2d; HIV protease inhibition, HPLC method
# [8] = Table 2d; HIV protease inhibition, HPLC method; read-out: HPLC K1
smiles,measurement,setting,value
C=CCCCCN1C(=O)N(CCCCC=C)C(Cc2ccccc2)C(O)C(O)C1Cc1ccccc1 (centres unmarked) [Example 13D],IC90,[1]; [3],< 10 µg/mL
same,Ki,[2]; [4],< 10 nM
O=C1N(CCCCC2CO2)C(Cc2ccccc2)C(O)C(O)C(Cc2ccccc2)N1CCCCC1CO1 (centres unmarked) [Example 13E],IC90,[1]; [3],< 10 µg/mL
same,Ki,[2]; [4],10 to 1000 nM
O=C1N(CCCCC(Br)CBr)C(Cc2ccccc2)C(O)C(O)C(Cc2ccccc2)N1CCCCC(Br)CBr (centres unmarked) [Example 13F],IC90,[1]; [3],> 100 µg/mL
same,Ki,[2]; [4],10 to 1000 nM
O=C1N(CCCCC(O)CBr)C(Cc2ccccc2)C(O)C(O)C(Cc2ccccc2)N1CCCCC(O)CBr (centres unmarked) [Example 13G],IC90,[1]; [3],< 10 µg/mL
same,Ki,[2]; [4],< 10 nM
O=C1N(CCCCCO)C(Cc2ccccc2)C(O)C(O)C(Cc2ccccc2)N1CCCCCO (centres unmarked) [Example 13H],IC90,[1]; [3],< 10 µg/mL
same,Ki,[2]; [4],< 10 nM
O=C1N(CCCCC(O)CO)C(Cc2ccccc2)C(O)C(O)C(Cc2ccccc2)N1CCCCC(O)CO (centres unmarked) [Example 13I],IC90,[1]; [3],> 100 µg/mL
same,Ki,[2]; [4],< 10 nM
O=C1N(CC2CC2)C(Cc2ccccc2)C(O)C(O)C(Cc2ccccc2)N1CC1CC1 (centres unmarked) [Example 13J],IC90,"[1]; Table 2d, class symbols",+++ (+++=<10 μg/mL)
same,Ki,[2]; [5],< 10 nM
C=CCN1C(=O)N(CC=C)C(Cc2ccccc2)C(O)C(O)C1Cc1ccccc1 (centres unmarked) [Example 13K],IC90,"[1]; Table 2d, class symbols",+++ (+++=<10 μg/mL)
same,Ki,[2]; [5],< 10 nM
O=C1N(Cc2ccccc2)C(Cc2ccccc2)C(O)C(O)C(Cc2ccccc2)N1Cc1ccccc1 (centres unmarked) [Example 13L],IC90,[1]; [3],< 10 µg/mL
same,Ki,[2]; [4],< 10 nM
O=C1N(Cc2ccc(CO)cc2)C(Cc2ccccc2)C(O)C(O)C(Cc2ccccc2)N1Cc1ccc(CO)cc1 (centres unmarked) [Example 13M],IC90,[1]; [3],< 10 µg/mL
same,Ki,[2]; [4],< 10 nM
C=CCN1C(=O)N(CC=C)[C@H](Cc2ccccc2)[C@@H](O)[C@H](O)[C@H]1Cc1ccccc1 [Example 13N],IC90,"[1]; Human immunodeficiency virus 1, MT2, 48 h",10 to 100 µg/mL
same,Ki,[2]; [4],> 1000 nM
O=C1NC(Cc2ccccc2)C(O)C(O)C(Cc2ccccc2)N1 (centres unmarked) [Example 13P],IC90,"[1]; Table 2d, class symbols",+ (+=>100 μg/mL)
same,Ki,[2]; [5],> 1000 nM
CCCCN1C(=O)N(CCCC)C(Cc2ccccc2)C(O)C(O)C1Cc1ccccc1 (centres unmarked) [Example 13R],IC90,[1]; [3],< 10 µg/mL
same,Ki,[2]; [4],10 to 1000 nM
O=C1N(Cc2ccc(CO)cc2)C(Cc2ccccc2)C(O)C(O)C(Cc2ccccc2)N1Cc1ccc(CO)cc1 (centres unmarked) [Example 13S],IC90,"[1]; Table 2d, class symbols",++ (++=10 to 100 μg/mL)
same,Ki,[2]; [4],10 to 1000 nM
O=C1N(Cc2ccc3c(c2)CCNC3)C(Cc2ccccc2)C(O)C(O)C(Cc2ccccc2)N1Cc1ccc2c(c1)CCNC2 (centres unmarked) [Example 13T],IC90,"[1]; Table 2d, class symbols",+ (+=>100 μg/mL)
same,Ki,[2]; [5],10 to 1000 nM
O=C1N(Cc2nccs2)C(Cc2ccccc2)C(O)C(O)C(Cc2ccccc2)N1Cc1nccs1 (centres unmarked) [Example 13V],IC90,"[1]; Table 2d, class symbols",++ (++=10 to 100 μg/mL)
same,Ki,[2]; [5],10 to 1000 nM
CC(C)(C)OC(=O)c1ccc(CN2C(=O)N(Cc3ccc(C(=O)OC(C)(C)C)o3)C(Cc3ccccc3)C(O)C(O)C2Cc2ccccc2)o1 (centres unmarked) [Example 13W],IC90,"[1]; Table 2d, class symbols",+++ (+++=<10 μg/mL)
same,Ki,[2]; [5],> 1000 nM
O=C1N(Cc2ccc(CO)o2)C(Cc2ccccc2)C(O)C(O)C(Cc2ccccc2)N1Cc1ccc(CO)o1 (centres unmarked) [Example 13X],IC90,[1]; [3],> 100 µg/mL
same,Ki,[2]; [4],10 to 1000 nM
O=C1N(Cc2cnccc2Cl)C(Cc2ccccc2)C(O)C(O)C(Cc2ccccc2)N1Cc1cnccc1Cl (centres unmarked) [Example 13Z],IC90,"[1]; Table 2d, class symbols",+++ (+++=<10 μg/mL)
same,Ki,[2]; [5],10 to 1000 nM
O=C1N(CC2CC2)C(Cc2ccccc2)C(O)C(O)C(Cc2ccccc2)N1CC1CC1 (centres unmarked) [Example 13o],IC90,"[1]; Table 2d, class symbols",++ (++=10 to 100 μg/mL)
same,Ki,[2]; [5],> 1000 nM
O=C1N(Cc2cccnc2Cl)C(Cc2ccccc2)C(O)C(O)C(Cc2ccccc2)N1Cc1cccnc1Cl (centres unmarked) [Example 14A],IC90,[1]; [3],10 to 100 µg/mL
same,Ki,[2]; [4],10 to 1000 nM
CC(C)(C)Sc1ncccc1CN1C(=O)N(Cc2cccnc2SC(C)(C)C)C(Cc2ccccc2)C(O)C(O)C1Cc1ccccc1 (centres unmarked) [Example 14B],IC90,[1]; [3],< 10 µg/mL
same,Ki,[2]; [4],10 to 1000 nM
O=C1N(Cc2cnccc2O)C(Cc2ccccc2)C(O)C(O)C(Cc2ccccc2)N1Cc1cnccc1O (centres unmarked) [Example 14C],IC90,"[1]; Table 2d, class symbols",+ (+=>100 μg/mL)
same,Ki,[2]; [5],10 to 1000 nM
O=C1N(CC2CC2)C(Cc2ccccc2)C(O)C(O)C(Cc2ccccc2)N1c1ccccn1 (centres unmarked) [Example 14D],IC90,[1]; [3],< 10 µg/mL
same,Ki,[2]; [4],10 to 1000 nM
Cc1cncc(O)c1CN1C(=O)N(Cc2c(C)cncc2O)C(Cc2ccccc2)C(O)C(O)C1Cc1ccccc1 (centres unmarked) [Example 14K],IC90,"[1]; Table 2d, class symbols",+ (+=>100 μg/mL)
same,Ki,[2]; [5],10 to 1000 nM
O=C(CCl)Nc1cccc(CN2C(=O)N(Cc3cccc(NC(=O)CCl)c3)C(Cc3ccccc3)C(O)C(O)C2Cc2ccccc2)c1 (centres unmarked) [Example 15AA],IC90,[1]; [6],< 10 µg/mL
same,Ki,[2]; [7],< 10 nM
Cl.Cl.O=C(Nc1cccc(CN2C(=O)N(Cc3cccc(NC(=O)c4ccncc4)c3)C(Cc3ccccc3)C(O)C(O)C2Cc2ccccc2)c1)c1ccncc1 (centres unmarked) [Example 15AC],IC90,"[1]; Table 2d, HIV RNA assay",+++ (+++=<10 μg/mL)
same,Ki,[2]; [8],< 10 nM
CN(C)Cc1nc(-c2cccc(CN3C(=O)N(Cc4cccc(-c5noc(CN(C)C)n5)c4)C(Cc4ccccc4)C(O)C(O)C3Cc3ccccc3)c2)no1.Cl.Cl (centres unmarked) [Example 15AO],IC90,"[1]; Table 2d, HIV RNA assay",+++ (+++=<10 μg/mL)
same,Ki,[2]; [8],< 10 nM
N#Cc1cccc(CN2C(=O)N(Cc3ccc(O)cc3)C(Cc3ccccc3)C(O)C(O)C2Cc2ccccc2)c1 (centres unmarked) [Example 15AQ],IC90,[1]; [6],< 10 µg/mL
same,Ki,[2]; [7],< 10 nM
N#Cc1cccc(CN2C(=O)N(Cc3cccnc3)C(Cc3ccccc3)C(O)C(O)C2Cc2ccccc2)c1 (centres unmarked) [Example 15AR],IC90,[1]; [6],< 10 µg/mL
same,Ki,[2]; [7],< 10 nM
O=C(COCc1ccccc1)c1cccc(CN2C(=O)N(Cc3cccc(C(=O)COCc4ccccc4)c3)C(Cc3ccccc3)C(O)C(O)C2Cc2ccccc2)c1 (centres unmarked) [Example 15BI],IC90,[1]; [6],< 10 µg/mL
same,Ki,[2]; [7],< 10 nM
C[Si](C)(C)CCOCn1cncc1-c1cccc(CN2C(=O)N(Cc3cccc(-c4cncn4COCC[Si](C)(C)C)c3)C(Cc3ccccc3)C(O)C(O)C2Cc2ccccc2)c1 (centres unmarked) [Example 15BJ],IC90,[1]; [6],< 10 µg/mL
same,Ki,[2]; [7],< 10 nM
CN(C)S(=O)(=O)n1ccnc1-c1cccc(CN2C(=O)N(Cc3cccc(-c4nccn4S(=O)(=O)N(C)C)c3)C(Cc3ccccc3)C(O)C(O)C2Cc2ccccc2)c1 (centres unmarked) [Example 15BM],IC90,[1]; [6],< 10 µg/mL
same,Ki,[2]; [7],10 to 1000 nM
O=C1N(Cc2cccc(-c3cn[nH]c3)c2)C(Cc2ccccc2)C(O)C(O)C(Cc2ccccc2)N1Cc1cccc(-c2cn[nH]c2)c1 (centres unmarked) [Example 15BN],IC90,[1]; [6],< 10 µg/mL
same,Ki,[2]; [7],< 10 nM
O=C1N(Cc2cccc(CO)c2)C(Cc2ccccc2)C(O)C(O)C(Cc2ccccc2)N1Cc1cccc(-c2cc[nH]n2)c1 (centres unmarked) [Example 15BQ],IC90,[1]; [6],< 10 µg/mL
same,Ki,[2]; [7],< 10 nM
O=C(NCCN1CCOCC1)c1cccc(CN2C(=O)N(Cc3cccc(-c4cc[nH]n4)c3)C(Cc3ccccc3)C(O)C(O)C2Cc2ccccc2)c1 (centres unmarked) [Example 15BT],IC90,[1]; [6],< 10 µg/mL
same,Ki,[2]; [7],< 10 nM
N#Cc1cccc(CN2C(=O)N(Cc3cccc(-c4cc[nH]n4)c3)C(Cc3ccccc3)C(O)C(O)C2Cc2ccccc2)c1 (centres unmarked) [Example 15BV],IC90,[1]; [6],< 10 µg/mL
same,Ki,[2]; [7],< 10 nM
NC(=NO)c1cccc(CN2C(=O)N(Cc3cccc(-c4cc[nH]n4)c3)C(Cc3ccccc3)C(O)C(O)C2Cc2ccccc2)c1 (centres unmarked) [Example 15BW],IC90,[1]; [6],< 10 µg/mL
same,Ki,[2]; [7],< 10 nM
O=C1NC(Cc2ccccc2)C(O)C(O)C(Cc2ccccc2)N1Cc1cccc(-c2cc[nH]n2)c1 (centres unmarked) [Example 15BX],IC90,[1]; [6],< 10 µg/mL
same,Ki,[2]; [7],< 10 nM
O=C1N(Cc2ccc(OCc3ccccc3)cc2)C(Cc2ccccc2)C(O)C(O)C(Cc2ccccc2)N1Cc1cccc(-c2cc[nH]n2)c1 (centres unmarked) [Example 15BY],IC90,[1]; [6],< 10 µg/mL
same,Ki,[2]; [7],< 10 nM
O=C(NCc1cccnc1)c1cccc(CN2C(=O)N(Cc3cccc(-c4cc[nH]n4)c3)C(Cc3ccccc3)C(O)C(O)C2Cc2ccccc2)c1 (centres unmarked) [Example 15BZ],IC90,[1]; [6],< 10 µg/mL
same,Ki,[2]; [7],< 10 nM
O=C1N(Cc2cccc(-c3cc[nH]n3)c2)C(Cc2ccccc2)C(O)C(O)C(Cc2ccccc2)N1Cc1cccc([N+](=O)[O-])c1 (centres unmarked) [Example 15CD],IC90,[1]; [6],< 10 µg/mL
same,Ki,[2]; [7],< 10 nM
O=C1N(Cc2ccoc2)C(Cc2ccccc2)C(O)C(O)C(Cc2ccccc2)N1Cc1coc(CO)c1 (centres unmarked) [Example 15FR],IC90,"[1]; HIV RNA assay, HIV-1 infected MT-2 cells, Table 2d",+++ (+++=<10 μg/mL)
same,Ki,"[2]; HIV protease inhibition, HPLC method; Table 2d; read-out: HPLC K1",< 10 nM
O=C1CCC(CN2C(=O)NC(Cc3ccccc3)C(O)C(O)C2Cc2ccccc2)CC1 (centres unmarked) [Example 15VA],IC90,[1]; [3],> 50 µg/mL
same,Ki,[2]; [4],10 to 1000 nM
O=C1NC(Cc2ccccc2)C(O)C(O)C(Cc2ccccc2)N1CC1CCC(=NO)CC1 (centres unmarked) [Example 15VC],IC90,"[1]; Table 2d, class symbols",++/+ (The ++/+ is used in the cases where an IC90 was determined to be >50 μg/mL)
same,Ki,[2]; [5],10 to 1000 nM
O=C1N(CCCCCCO)C(Cc2ccccc2)C(O)C(O)C(Cc2ccccc2)N1CCCCCCCl (centres unmarked) [Example 15VE],IC90,[1]; [3],< 10 µg/mL
same,Ki,[2]; [4],10 to 1000 nM
O=C1NC(Cc2ccccc2)C(O)C(O)C(Cc2ccccc2)N1CCCCCO (centres unmarked) [Example 15VG],IC90,[1]; [3],< 10 µg/mL
same,Ki,[2]; [4],< 10 nM
O=C1N(CCCCCO)C(Cc2ccccc2)C(O)C(O)C(Cc2ccccc2)N1Cc1ccccc1 (centres unmarked) [Example 15VI],IC90,[1]; [3],< 10 µg/mL
same,Ki,[2]; [4],< 10 nM
CSCCCCCN1C(=O)N(CCCCCO)C(Cc2ccccc2)C(O)C(O)C1Cc1ccccc1 (centres unmarked) [Example 15VJ],IC90,[1]; [3],< 10 µg/mL
same,Ki,[2]; [4],10 to 1000 nM
O=C1N(CCCCCO)C(Cc2ccccc2)C(O)C(O)C(Cc2ccccc2)N1Cc1ccc(CO)cc1 (centres unmarked) [Example 15VK],IC90,[1]; [3],< 10 µg/mL
same,Ki,[2]; [4],< 10 nM
CCC(O)CN1C(=O)NC(Cc2ccccc2)C(O)C(O)C1Cc1ccccc1 (centres unmarked) [Example 15VL],IC90,[1]; [3],> 50 µg/mL
same,Ki,[2]; [4],> 1000 nM
CCCCC(O)CN1C(=O)NC(Cc2ccccc2)C(O)C(O)C1Cc1ccccc1 (centres unmarked) [Example 15VM],IC90,[1]; [3],> 50 µg/mL
same,Ki,[2]; [4],> 1000 nM

# Source: patent USRE37781E1, “Substituted cyclic carbonyls and derivatives thereof useful as retroviral protease inhibitors” (DuPont Pharmaceuticals Company, priority 1991, dated 2002)
